For 13 compounds, IC50 and Ki results are on record in patent publication US9079866B2, “Flap modulators” (JANSSEN PHARMACEUTICA NV, priority 2013, dated 2015).

Assay [1] relates to leukotriene pathway in human whole blood (LTB4 levels). Description: Human whole blood assay (A23187-stimulated LTB4). In kind it is cell-based. As to conditions: Homo sapiens, read-out: LTB4 IC50 1:1. The essentials: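 Blood (heparin) diluted 1:1 RPMI; compound pre-incubation 15 min, 37° Celsius; A23187 7 μg/mL, 30 min, 37° Celsius; plasma LTB4 by commercial kit. IC50 via 4-parameter equation.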

The target in a further assay is human FLAP (Homo sapiens (Human), UniProt P20292). Description: FLAP binding assay (HTRF format). The essentials: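 HTRF ratio read-out; two independent plates, samples in duplicate on each, values averaged across plates.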
[2] abbreviates: human whole blood diluted 1:1 in RPMI, A23187-stimulated LTB4.
The mark [3] stands for this setting: human FLAP wild type, HTRF format, average of two plates, duplicates.

Structures are written as SMILES. Counter-ions that a name gives are not always drawn. Like-named read-outs stand apart in the source and are kept apart here.

Sequence of human FLAP (P20292 whole entry): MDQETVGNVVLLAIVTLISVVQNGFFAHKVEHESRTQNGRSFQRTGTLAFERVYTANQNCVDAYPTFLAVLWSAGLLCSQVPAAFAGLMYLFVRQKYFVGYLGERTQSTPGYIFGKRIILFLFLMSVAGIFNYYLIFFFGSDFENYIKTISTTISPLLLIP

Turning to `Nc1cnc(-c2ccc(-c3ccccc3CSc3ccc(N)nn3)cc2F)cn1` [Example 240, 6-(((4′-(5-Aminopyrazin-2-yl)-3′-fluoro-[1,1′-biphenyl]-2-yl)methyl)thio)pyridazin-3-amine hydrochloride], the half-maximal inhibitory concentration (IC50) (as a rule, the concentration that inhibits the measured activity by half) in assay [1] (setting [2]) came to 21 nM. The affinity on human FLAP (setting [3]), expressed as Ki, was 2 nM.
Turning to `Nc1cnc(-c2ccc(-c3ccccc3S(=O)(=O)C3CCS(=O)(=O)CC3)cc2F)cn1` [Example 241, 5-{2′-[(1,1-Dioxidotetrahydro-2H-thiopyran-4-yl)sulfonyl]-3-fluorobiphenyl-4-yl}pyrazin-2-amine], the half-inhibitory concentration (IC50) in assay [1] (setting [2]) worked out at 61 nM. In addition, the Ki (in general, a dissociation constant, usually derived from enzyme kinetics or from competition with a known ligand) at human FLAP (setting [3]) was determined as 15 nM.
For the compound `Nc1cnc(-c2ccc(-c3ccccc3Sc3ccnc(N)n3)cc2F)cn1` [Example 242, 4-{[4′-(5-Aminopyrazin-2-yl)-3′-fluorobiphenyl-2-yl]sulfanyl}pyrimidin-2-amine hydrochloride], the IC50 in assay [1] (setting [2]) amounted to 4 nM. Affinity on human FLAP (setting [3]) was put at a Ki of 1 nM.
In the same order, the values of `Nc1cnc(-c2ccc(-c3ccccc3CSc3ccncn3)cc2F)cn1` [Example 243, 5-(3-Fluoro-2′-((pyrimidin-4-ylthio)methyl)-[1,1′-biphenyl]-4-yl)pyrazin-2-amine hydrochloride] are 120 nM and 3 nM.
Turning to `C[Si](C)(C)CCOCSc1ccccc1-c1ccc(-c2cnc(N)cn2)c(F)c1` [Example 244, 5-[3-Fluoro-2′-({[2-(trimethylsilyl)ethoxy]methyl}sulfanyl)biphenyl-4-yl]pyrazin-2-amine], the concentration for half-maximal inhibition (IC50) in assay [1] was found to be 211 nM. The inhibition constant Ki at human FLAP (setting [3]) was 29 nM.
For `C[Si](C)(C)CCOCS(=O)(=O)c1ccccc1-c1ccc(-c2cnc(N)cn2)c(F)c1` [Example 245, 5-[3-Fluoro-2′-({[2-(trimethylsilyl)ethoxy]methyl}sulfonyl)biphenyl-4-yl]pyrazin-2-amine hydrochloride], the IC50 in assay [1] came out at 233 nM. Besides, the Ki on human FLAP (read-out: FLAP Binding wild type HTRF Ki) is 45 nM.
As to `CS(=O)(=O)CCCS(=O)(=O)c1ccccc1-c1ccc(-c2cnc(N)cn2)c(F)c1` [Example 246, 5-(3-Fluoro-2′-{[3-(methylsulfonyl)propyl]sulfonyl}biphenyl-4-yl)pyrazin-2-amine hydrochloride], the IC50 in assay [1] (setting [2]) was determined as 302 nM. On human FLAP (setting [3]), the inhibitory constant (Ki) was determined as 199 nM.
In the same order, the values of `C[C@@H]1CNCCN1S(=O)(=O)c1ccccc1-c1ccc(-c2cnc(N)nc2)c(F)c1` [Example 247, 5-(3-Fluoro-2′-{[(2R)-2-methylpiperazin-1-yl]sulfonyl}biphenyl-4-yl)pyrimidin-2-amine] are 197 nM and 89 nM.
Take `CC[C@@H](CO)NS(=O)(=O)c1ccccc1-c1ccc(-c2cnc(N)nc2)c(F)c1` [Example 248, 4′-(2-Aminopyrimidin-5-yl)-3′-fluoro-N-[(1S)-1-(hydroxymethyl)propyl]biphenyl-2-sulfonamide]: the concentration for half-maximal inhibition (IC50) in assay [1] (setting [2]) came to 124 nM. The compound further displayed a Ki on human FLAP (setting [3]) of 50 nM.
Taken in the same sequence, the figures for `N#CCCN(C1CC1)S(=O)(=O)c1ccccc1-c1ccc(-c2cnc(N)nc2)c(F)c1` [Example 249, 4′-(2-Aminopyrimidin-5-yl)-N-(2-cyanoethyl)-N-cyclopropyl-3′-fluorobiphenyl-2-sulfonamide] were 94 nM and 59 nM.
Taken in the same sequence, the figures for `N#CCCNS(=O)(=O)c1ccccc1-c1ccc(-c2cnc(N)nc2)c(F)c1` [Example 250, 4′-(2-Aminopyrimidin-5-yl)-N-(2-cyanoethyl)-3′-fluorobiphenyl-2-sulfonamide] were 77 nM and 38 nM.
In the same order, the values of `CC(C)(CO)CNS(=O)(=O)c1ccccc1-c1ccc(-c2cnc(N)nc2)c(F)c1` [Example 251, 4′-(2-Aminopyrimidin-5-yl)-3′-fluoro-N-(3-hydroxy-2,2-dimethylpropyl)biphenyl-2-sulfonamide] are 68 nM and 5 nM.
On to `C[C@H]1CNCCN1S(=O)(=O)c1ccccc1-c1ccc(-c2cnc(N)nc2)c(F)c1` [Example 253, 5-(3-Fluoro-2′-{[(2S)-2-methylpiperazin-1-yl]sulfonyl}biphenyl-4-yl)pyrimidin-2-amine], for which the IC50 in assay [1] (setting [2]) came to 191 nM. Moreover, the Ki on human FLAP (setting [3]) stood at 134 nM.
